Data taken from ChEMBL document CHEMBL2311402 (J Med Chem, 2013).

What was measured:
Tubulin (Homo sapiens) = Tubulin (Homo sapiens) (UniProt P68371+Q9H4B7+P0DPH7+P68366+Q13509+Q71U36+P04350+Q3ZCM7+P07437+P68363+Q9BQE3+Q6PEY2+Q13885+Q9BVA1+Q9BUF5); assay: Displacement of [3H]colchicine from tubulin (unknown origin) at 5 uM after 10 mins by DEAE-cellulose filter method; assay type: protein-complex assay
[1] = Cytotoxicity against human MESSA/DX5 cells assessed as growth inhibition after 72 hrs by Celltiter-Glo luminescent assay; assay type: functional, cell-based; details: MES-SA/Dx5, 72 h
HCT-116 = assay: cells; details: Homo sapiens, HCT-116, 72 h
Description: Cytotoxicity against human HCT116 assessed as growth inhibition after 72 hrs by Celltiter-Glo luminescent assay

HCT-15 = assay: cells; details: Homo sapiens, HCT-15, 72 h
Description: Cytotoxicity against human HCT15 cells assessed as growth inhibition after 72 hrs by Celltiter-Glo luminescent assay

HT-29 = assay: cells; details: Homo sapiens, HT-29, 48 h
Description: Cytotoxicity against human HT-29 cells assessed as growth inhibition after 48 hrs by MTT assay

A549 = assay: cells; details: Homo sapiens, A549, 48 h
Description: Cytotoxicity against human A549 cells assessed as growth inhibition after 48 hrs by MTT assay

HeLa = assay: cells; details: Homo sapiens, 48 h
Description: Cytotoxicity against human HeLa cells assessed as growth inhibition after 48 hrs by MTT assay

CYP3A4 = CYP3A4 (Homo sapiens, UniProt P08684); assay: Inhibition of human CYP3A4 at 1 uM; assay type: ADME
CYP2D6 = CYP2D6 (Homo sapiens, UniProt P10635); assay: Inhibition of human CYP2D6 at 1 uM; assay type: ADME
CYP2C9 = CYP2C9 (Homo sapiens, UniProt P11712); assay: Inhibition of human CYP2C9 at 1 uM; assay type: ADME
CYP2C19 = CYP2C19 (Homo sapiens, UniProt P33261); assay: Inhibition of human CYP2C19 at 1 uM; assay type: ADME
CYP1A2 = target: T1, CYP1A2 (Homo sapiens, UniProt P05177); assay: Inhibition of human CYP1A2 at 1 uM; assay type: ADME
T1 sequence (P05177 whole entry): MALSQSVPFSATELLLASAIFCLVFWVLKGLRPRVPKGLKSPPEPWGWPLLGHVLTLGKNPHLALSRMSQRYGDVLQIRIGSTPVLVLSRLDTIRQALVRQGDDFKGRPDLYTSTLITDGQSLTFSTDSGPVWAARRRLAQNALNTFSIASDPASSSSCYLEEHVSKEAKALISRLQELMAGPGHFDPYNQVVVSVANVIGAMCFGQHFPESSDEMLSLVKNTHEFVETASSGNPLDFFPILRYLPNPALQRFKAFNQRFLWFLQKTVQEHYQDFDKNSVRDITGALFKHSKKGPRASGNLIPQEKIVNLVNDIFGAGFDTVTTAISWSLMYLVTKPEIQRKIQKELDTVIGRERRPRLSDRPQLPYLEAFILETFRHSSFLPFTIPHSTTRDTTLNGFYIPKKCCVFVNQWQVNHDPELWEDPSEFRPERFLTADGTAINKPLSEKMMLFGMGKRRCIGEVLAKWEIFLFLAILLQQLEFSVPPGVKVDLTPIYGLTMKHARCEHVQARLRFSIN

NCI/ADR-RES = assay: Cytotoxicity against human NCI/ADR-RES cells assessed as growth inhibition by trypan blue exclusion assay; assay type: functional, cell-based
U-87 MG = assay: Induction of apoptosis in human U87MG assessed as reduction in mitochondrial membrane potential at 30 uM after 24 hrs by JC-1 staining-based fluorescence microscopy; assay type: functional, U-87MG ATCC; design: scale not given: the % may be the effect or the level left

Chain of CYP2C19 (P33261 whole entry): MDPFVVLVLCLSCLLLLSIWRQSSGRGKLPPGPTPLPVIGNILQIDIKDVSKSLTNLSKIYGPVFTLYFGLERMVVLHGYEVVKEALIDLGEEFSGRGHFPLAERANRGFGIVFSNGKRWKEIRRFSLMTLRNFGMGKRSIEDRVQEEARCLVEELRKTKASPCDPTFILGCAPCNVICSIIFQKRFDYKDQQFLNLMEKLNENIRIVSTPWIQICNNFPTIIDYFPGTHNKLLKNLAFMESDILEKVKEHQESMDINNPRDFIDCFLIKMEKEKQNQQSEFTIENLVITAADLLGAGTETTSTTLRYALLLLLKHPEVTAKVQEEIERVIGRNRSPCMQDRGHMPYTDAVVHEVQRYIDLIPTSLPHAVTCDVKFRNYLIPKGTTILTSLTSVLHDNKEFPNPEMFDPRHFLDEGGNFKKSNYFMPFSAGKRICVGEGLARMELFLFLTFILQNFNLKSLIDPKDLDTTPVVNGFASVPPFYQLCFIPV
Chain of CYP3A4 (P08684 whole entry): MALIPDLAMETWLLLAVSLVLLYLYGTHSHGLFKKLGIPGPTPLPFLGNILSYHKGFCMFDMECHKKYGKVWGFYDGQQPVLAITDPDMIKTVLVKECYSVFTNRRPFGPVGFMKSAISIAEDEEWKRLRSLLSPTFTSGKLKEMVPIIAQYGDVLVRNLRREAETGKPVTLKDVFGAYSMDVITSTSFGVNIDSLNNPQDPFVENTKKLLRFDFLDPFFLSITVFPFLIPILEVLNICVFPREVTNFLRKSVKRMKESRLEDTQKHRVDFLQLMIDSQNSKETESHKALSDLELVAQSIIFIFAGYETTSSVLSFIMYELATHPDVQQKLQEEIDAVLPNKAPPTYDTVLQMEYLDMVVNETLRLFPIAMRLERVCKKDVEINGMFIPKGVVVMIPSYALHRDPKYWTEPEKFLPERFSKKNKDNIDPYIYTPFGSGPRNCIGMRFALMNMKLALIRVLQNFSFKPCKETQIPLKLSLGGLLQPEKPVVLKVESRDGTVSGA
Chain of CYP2C9 (P11712 whole entry): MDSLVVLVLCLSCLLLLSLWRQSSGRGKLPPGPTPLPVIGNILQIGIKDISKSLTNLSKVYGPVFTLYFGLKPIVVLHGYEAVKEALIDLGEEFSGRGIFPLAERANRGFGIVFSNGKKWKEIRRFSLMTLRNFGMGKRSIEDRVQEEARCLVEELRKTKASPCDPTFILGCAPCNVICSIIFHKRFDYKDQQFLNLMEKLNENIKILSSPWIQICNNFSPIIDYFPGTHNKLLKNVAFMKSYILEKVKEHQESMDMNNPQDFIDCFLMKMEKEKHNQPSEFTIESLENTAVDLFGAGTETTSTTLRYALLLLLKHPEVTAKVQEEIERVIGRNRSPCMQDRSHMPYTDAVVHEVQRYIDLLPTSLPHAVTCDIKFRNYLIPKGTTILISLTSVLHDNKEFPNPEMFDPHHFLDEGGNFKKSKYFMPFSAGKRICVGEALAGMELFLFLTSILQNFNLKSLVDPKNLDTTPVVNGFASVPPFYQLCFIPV
Chain of CYP2D6 (P10635 whole entry): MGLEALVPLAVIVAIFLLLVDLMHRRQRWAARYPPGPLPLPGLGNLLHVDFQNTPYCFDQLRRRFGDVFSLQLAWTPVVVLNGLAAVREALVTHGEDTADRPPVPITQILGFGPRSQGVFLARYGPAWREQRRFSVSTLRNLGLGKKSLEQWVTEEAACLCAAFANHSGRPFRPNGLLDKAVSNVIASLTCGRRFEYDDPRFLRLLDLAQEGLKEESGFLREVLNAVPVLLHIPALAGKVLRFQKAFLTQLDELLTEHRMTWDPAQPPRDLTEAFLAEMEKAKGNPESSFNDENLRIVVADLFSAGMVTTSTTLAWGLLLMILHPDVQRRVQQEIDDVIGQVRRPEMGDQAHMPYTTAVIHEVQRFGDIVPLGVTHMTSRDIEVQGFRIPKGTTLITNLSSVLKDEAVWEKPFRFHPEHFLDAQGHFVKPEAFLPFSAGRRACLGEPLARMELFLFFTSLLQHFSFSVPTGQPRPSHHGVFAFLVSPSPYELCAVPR

SMILES: COc1cc(C(=O)c2c(-c3cc[nH]c3)[nH]c3ccccc23)cc(OC)c1OC
- inhibition (Tubulin (Homo sapiens)): 71%

SMILES: CC[C@]1(O)C[C@@H]2CN(CCc3c([nH]c4ccccc34)[C@@](C(=O)OC)(c3cc4c(cc3OC)N(C)[C@H]3[C@@](O)(C(=O)OC)[C@H](OC(C)=O)[C@]5(CC)C=CCN6CC[C@]43[C@@H]65)C2)C1 [VINBLASTINE]
- IC50 [1]: 144 nM
- IC50 (HCT-116): 3 nM
- IC50 (HCT-15): 24 nM
- IC50 (HT-29): 30 nM
- IC50 (A549): 20 nM
- IC50 (HeLa): 10 nM

SMILES: COc1cc(Sc2c(-c3cn[nH]c3)[nH]c3ccccc23)cc(OC)c1OC
- inhibition (Tubulin (Homo sapiens)): 81%

SMILES: CC(=O)O[C@H]1C(=O)[C@@]2(C)[C@H]([C@H](OC(=O)c3ccccc3)[C@]3(O)C[C@H](OC(=O)[C@H](O)[C@@H](NC(=O)c4ccccc4)c4ccccc4)C(C)=C1C3(C)C)[C@]1(OC(C)=O)CO[C@@H]1C[C@@H]2O [PACLITAXEL]
- IC50 (HCT-15): 90 nM

SMILES: COc1cc(Sc2c(-c3ccncc3)[nH]c3ccccc23)cc(OC)c1OC
- inhibition at 1 µM (CYP3A4): 58%
- inhibition at 1 µM (CYP2D6): 43.1%
- inhibition at 1 µM (CYP2C9): 100%
- inhibition at 1 µM (CYP2C19): 100%
- inhibition at 1 µM (CYP1A2): 14.5%
- inhibition (Tubulin (Homo sapiens)): 91%

SMILES: COc1cc(Sc2c(-n3ccnc3)[nH]c3ccccc23)cc(OC)c1OC
- inhibition at 1 µM (CYP3A4): 94.5%
- inhibition at 1 µM (CYP2D6): 10.6%
- inhibition at 1 µM (CYP2C9): 95.9%
- inhibition at 1 µM (CYP2C19): 82.5%
- inhibition at 1 µM (CYP1A2): 22.9%
- inhibition (Tubulin (Homo sapiens)): 92%

SMILES: COc1cc(Sc2c(-c3ccc(F)cc3)[nH]c3ccccc23)cc(OC)c1OC
- inhibition (Tubulin (Homo sapiens)): 74%

SMILES: COc1cc(Sc2c(-c3ccccc3F)[nH]c3ccccc23)cc(OC)c1OC
- inhibition (Tubulin (Homo sapiens)): 74%

SMILES: CCC1=C[C@@H]2CN(C1)Cc1c([nH]c3ccccc13)[C@@](C(=O)OC)(c1cc3c(cc1OC)N(C)[C@H]1[C@@](O)(C(=O)OC)[C@H](OC(C)=O)[C@]4(CC)C=CCN5CC[C@]31[C@@H]54)C2 [VINORELBINE]
- IC50 (NCI/ADR-RES): 5000 nM

SMILES: COc1cc(Sc2c(-c3cccc(F)c3)[nH]c3ccccc23)cc(OC)c1OC
- inhibition (Tubulin (Homo sapiens)): 75%

SMILES: COc1cc(Sc2c(-c3nccs3)[nH]c3ccccc23)cc(OC)c1OC
- inhibition (Tubulin (Homo sapiens)): 72%

SMILES: COc1cc(Sc2c(-n3cncn3)[nH]c3ccccc23)cc(OC)c1OC
- inhibition at 1 µM (CYP3A4): 51.4%
- inhibition at 1 µM (CYP2D6): < 5%
- inhibition at 1 µM (CYP2C9): 93.1%
- inhibition at 1 µM (CYP2C19): 83.9%
- inhibition at 1 µM (CYP1A2): < 5%
- inhibition (Tubulin (Homo sapiens)): 83%

SMILES: COc1cc(C(=O)c2c(-c3ccoc3)[nH]c3ccccc23)cc(OC)c1OC
- inhibition (Tubulin (Homo sapiens)): 77%

SMILES: COc1cc(C(=O)c2c(-c3ccco3)[nH]c3ccccc23)cc(OC)c1OC
- inhibition (Tubulin (Homo sapiens)): 78%

SMILES: COc1cc(C(O)c2c(-c3cc[nH]c3)[nH]c3ccccc23)cc(OC)c1OC (stereo not drawn)
- inhibition (Tubulin (Homo sapiens)): 70%

SMILES: N#CC(C#N)=NNc1cccc(Cl)c1 [CARBONYL CYANIDE M-CHLOROPHENYLHYDRAZONE]
- Activity (U-87 MG): 50%

SMILES: COc1cc(C(=O)c2c(-c3ccc[nH]3)[nH]c3ccccc23)cc(OC)c1OC
- inhibition (Tubulin (Homo sapiens)): 79%

SMILES: COc1cc(Sc2c(-c3cccnc3)[nH]c3ccccc23)cc(OC)c1OC
- inhibition at 1 µM (CYP3A4): 76.4%
- inhibition at 1 µM (CYP2C9): 102%
- inhibition at 1 µM (CYP2C19): 84.9%
- inhibition at 1 µM (CYP1A2): 23.4%
- inhibition (Tubulin (Homo sapiens)): 88%

SMILES: COc1cc(Sc2c(-c3cc[nH]n3)[nH]c3ccccc23)cc(OC)c1OC
- inhibition (Tubulin (Homo sapiens)): 78%
